Holding throughout (test): Herbicidal effect by foliage and soil treatment
Type in all cases: in vivo
Holding throughout (settings): 10 g ai/10a, evaluated after 14 days

Assay [1] deals with wild chamomile (Matricaria chamomilla). The method, boiled down: (§1)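 Post-emergence spray, cotyledon to bifoliate stage; Tween 20/water vehicle, fixed dose per area; greenhouse 19–25 °C; 14 d; visual growth rating vs untreated.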
Assay [2] deals with black nightshade (Solanum nigrum). The method, boiled down:
as §1

The test system of assay [3] is common chickweed (Stellaria media). The method, boiled down: as §1
Assay [4] concerns cleavers (Galium aparine). An outline of the steps: as §1
Assay [5] deals with common blackjack (Bidens pilosa). The method, boiled down:
as §1

For assay [6], the system named is sicklepod (Cassia obtusifolia). An outline of the steps:
as §1

Assay [7] concerns field bindweed (Convolvulus arvensis). An outline of the steps: as §1
Assay [8] has as its system velvetleaf (Abutilon theophrasti). An outline of the steps:
as §1

Assay [9] relates to redroot pigweed (Amaranthus retroflexus). The method, boiled down:
as §1

For assay [10], the system named is ivyleafspeedwell (Veronica hederaefolia). An outline of the steps: as §1
In assay [11] the test system is kediock (Sinapis arvensis). The method, boiled down:
as §1

`COc1cc(Oc2cccc(C(F)(F)F)c2)nc(C(=O)NCCCS(C)(=O)=O)c1` [Compound I-77]: the “herbicidal activity rating, MC (Matricaria chamomilla)” value (from here on “herbicidal activity rating, MC”) in assay [1] is 3 (percentage of weeds killed was not less than 40% and less than 60%). Also, in assay [2], the “herbicidal activity rating, SN (Solanum nigrum)” value (shortened to “herbicidal activity rating, SN”) was 5 (percentage of weeds killed was not less than 80%). In addition, the “herbicidal activity rating, SM (Stellaria media)” value (from here on “herbicidal activity rating, SM”) in assay [3] is 4 (percentage of weeds killed was not less than 60% and less than 80%). For the same compound, the “herbicidal activity rating, GA (Galium aparine)” value (shortened to “herbicidal activity rating, GA”) in assay [4] was 5 (percentage of weeds killed was not less than 80%). In addition, in assay [5], the “herbicidal activity rating, BP (Bidens pilosa)” value (from here on “herbicidal activity rating, BP”) was 4 (percentage of weeds killed was not less than 60% and less than 80%). Also, in assay [6], the “herbicidal activity rating, CO (Cassia obtusifolia)” value (shortened to “herbicidal activity rating, CO”) is listed as 5 (percentage of weeds killed was not less than 80%). Besides, the “herbicidal activity rating, CA (Convolvulus arvensis)” value (from here on “herbicidal activity rating, CA”) in [7] was 4 (percentage of weeds killed was not less than 60% and less than 80%). The “herbicidal activity rating, AT (Abutilon theophrasti)” value in assay [8] is 5 (percentage of weeds killed was not less than 80%). Moreover, the “herbicidal activity rating, AR (Amaranthus retroflexus)” value (“herbicidal activity rating, AR” for short) in assay [9] was 5 (percentage of weeds killed was not less than 80%). Further, the “herbicidal activity rating, VH (Veronica hederaefolia)” value (“herbicidal activity rating, VH” for short) in assay [10] is on record as 5 (percentage of weeds killed was not less than 80%). In addition, in assay [11], the “herbicidal activity rating, SA (Sinapis arvensis)” value (shortened to “herbicidal activity rating, SA”) is given as 5 (percentage of weeds killed was not less than 80%).

Consider `COc1cc(Oc2cccc(C(F)(F)F)c2)nc(C(=O)NCCCCl)c1` [Compound I-79], for which, in [1], the “herbicidal activity rating, MC” value is given as 5 (percentage of weeds killed was not less than 80%). For the same compound, the “herbicidal activity rating, SN” value in assay [2] was 5 (percentage of weeds killed was not less than 80%). Also, in [3], the “herbicidal activity rating, SM” value is given as 5 (percentage of weeds killed was not less than 80%). Besides, the “herbicidal activity rating, GA” value in assay [4] is 5 (percentage of weeds killed was not less than 80%). The “herbicidal activity rating, BP” value in [5] is on record as 5 (percentage of weeds killed was not less than 80%). In [6], the “herbicidal activity rating, CO” value is recorded as 5 (percentage of weeds killed was not less than 80%). The “herbicidal activity rating, CA” value in [7] was 4 (percentage of weeds killed was not less than 60% and less than 80%). Also, in [8], the “herbicidal activity rating, AT (Abutilon theophrasti)” value was 5 (percentage of weeds killed was not less than 80%). The “herbicidal activity rating, AR” value in assay [9] is 5 (percentage of weeds killed was not less than 80%). The “herbicidal activity rating, VH” value in [10] is on record as 5 (percentage of weeds killed was not less than 80%). In assay [11], the “herbicidal activity rating, SA” value was 5 (percentage of weeds killed was not less than 80%).

Turning to `COc1cc(Oc2cccc(C(F)(F)F)c2)nc(C(=O)NCC(F)(F)C(F)(F)C(F)(F)F)c1` [Compound I-80], the “herbicidal activity rating, MC” value in assay [1] is recorded as 5 (percentage of weeds killed was not less than 80%). Further, the “herbicidal activity rating, SN” value in assay [2] is 5 (percentage of weeds killed was not less than 80%). Besides, the “herbicidal activity rating, SM” value in assay [3] is recorded as 5 (percentage of weeds killed was not less than 80%). The “herbicidal activity rating, GA” value in [4] is 5 (percentage of weeds killed was not less than 80%). The “herbicidal activity rating, BP” value in assay [5] is listed as 5 (percentage of weeds killed was not less than 80%). Also, in [6], the “herbicidal activity rating, CO” value is 5 (percentage of weeds killed was not less than 80%). Further, in assay [7], the “herbicidal activity rating, CA” value is on record as 5 (percentage of weeds killed was not less than 80%). For the same compound, in [8], the “herbicidal activity rating, AT (Abutilon theophrasti)” value is on record as 5 (percentage of weeds killed was not less than 80%). Besides, the “herbicidal activity rating, AR” value in assay [9] was 5 (percentage of weeds killed was not less than 80%). The “herbicidal activity rating, VH” value in assay [10] is given as 5 (percentage of weeds killed was not less than 80%). In addition, the “herbicidal activity rating, SA” value in assay [11] is listed as 5 (percentage of weeds killed was not less than 80%).

For `COc1cc(Oc2cccc(C(F)(F)F)c2)nc(C(=O)NCC(F)(F)C(F)(F)F)c1` [Compound I-81], in assay [1], the “herbicidal activity rating, MC” value is 5 (percentage of weeds killed was not less than 80%). In assay [2], the “herbicidal activity rating, SN” value is 5 (percentage of weeds killed was not less than 80%). For the same compound, in assay [3], the “herbicidal activity rating, SM” value was 5 (percentage of weeds killed was not less than 80%). The “herbicidal activity rating, GA” value in [4] is reported as 5 (percentage of weeds killed was not less than 80%). In assay [5], the “herbicidal activity rating, BP” value is listed as 5 (percentage of weeds killed was not less than 80%). Besides, the “herbicidal activity rating, CO” value in [6] is given as 5 (percentage of weeds killed was not less than 80%). Further, the “herbicidal activity rating, CA” value in assay [7] is 5 (percentage of weeds killed was not less than 80%). Besides, the “herbicidal activity rating, AT (Abutilon theophrasti)” value in assay [8] is listed as 5 (percentage of weeds killed was not less than 80%). Also, in assay [9], the “herbicidal activity rating, AR” value is on record as 5 (percentage of weeds killed was not less than 80%). The “herbicidal activity rating, VH” value in assay [10] was 5 (percentage of weeds killed was not less than 80%). Moreover, the “herbicidal activity rating, SA” value in assay [11] is listed as 5 (percentage of weeds killed was not less than 80%).

For the compound `COc1cc(Oc2cccc(C(F)(F)F)c2)nc(C(=O)NCC(F)(F)F)c1` [Compound I-82], the “herbicidal activity rating, MC” value in assay [1] is reported as 5 (percentage of weeds killed was not less than 80%). The “herbicidal activity rating, SN” value in assay [2] was 5 (percentage of weeds killed was not less than 80%). In addition, in assay [3], the “herbicidal activity rating, SM” value is given as 5 (percentage of weeds killed was not less than 80%). Also, in [4], the “herbicidal activity rating, GA” value is 5 (percentage of weeds killed was not less than 80%). Moreover, in [5], the “herbicidal activity rating, BP” value was 4 (percentage of weeds killed was not less than 60% and less than 80%). Also, the “herbicidal activity rating, CO” value in assay [6] was 5 (percentage of weeds killed was not less than 80%). Further, the “herbicidal activity rating, CA” value in assay [7] is 5 (percentage of weeds killed was not less than 80%). Moreover, the “herbicidal activity rating, AT (Abutilon theophrasti)” value in assay [8] was 5 (percentage of weeds killed was not less than 80%). The “herbicidal activity rating, AR” value in assay [9] was 5 (percentage of weeds killed was not less than 80%). The “herbicidal activity rating, VH” value in assay [10] is recorded as 5 (percentage of weeds killed was not less than 80%). The “herbicidal activity rating, SA” value in assay [11] is reported as 5 (percentage of weeds killed was not less than 80%).

For `COc1cc(Oc2cccc(C(F)(F)F)c2)nc(C(=O)NC=C(Cl)Cl)c1` [Compound I-83, N-(2,2-dichlorovinyl)-4-methoxy-6-{3-(trifluoromethyl)phenoxy}-2-pyridine carboxamide], the “herbicidal activity rating, MC” value in assay [1] is listed as 5 (percentage of weeds killed was not less than 80%). Besides, the “herbicidal activity rating, SN” value in assay [2] is given as 5 (percentage of weeds killed was not less than 80%). Moreover, the “herbicidal activity rating, SM” value in assay [3] is reported as 5 (percentage of weeds killed was not less than 80%). Also, in assay [4], the “herbicidal activity rating, GA” value is 5 (percentage of weeds killed was not less than 80%). In assay [5], the “herbicidal activity rating, BP” value is on record as 5 (percentage of weeds killed was not less than 80%). Besides, the “herbicidal activity rating, CO” value in assay [6] was 5 (percentage of weeds killed was not less than 80%). For the same compound, in assay [7], the “herbicidal activity rating, CA” value is listed as 5 (percentage of weeds killed was not less than 80%). In assay [8], the “herbicidal activity rating, AT (Abutilon theophrasti)” value was 5 (percentage of weeds killed was not less than 80%). For the same compound, in assay [9], the “herbicidal activity rating, AR” value is recorded as 5 (percentage of weeds killed was not less than 80%). In addition, the “herbicidal activity rating, VH” value in [10] is 5 (percentage of weeds killed was not less than 80%). Further, in assay [11], the “herbicidal activity rating, SA” value was 5 (percentage of weeds killed was not less than 80%).

Take `COc1cc(Oc2cccc(C(F)(F)F)c2)nc(C(=O)NCC#N)c1` [Compound I-84, N-{(2-cyano)methyl}-4-methoxy-6-{3-(trifluoromethyl)phenoxy}-2-pyridine carboxamide]: the “herbicidal activity rating, MC” value in assay [1] is 2 (percentage of weeds killed was not less than 20% and less than 40%). Further, the “herbicidal activity rating, SN” value in [2] is given as 5 (percentage of weeds killed was not less than 80%). In [3], the “herbicidal activity rating, SM” value was 4 (percentage of weeds killed was not less than 60% and less than 80%). The “herbicidal activity rating, GA” value in [4] is on record as 5 (percentage of weeds killed was not less than 80%). Moreover, the “herbicidal activity rating, BP” value in [5] is given as 5 (percentage of weeds killed was not less than 80%). Besides, in [6], the “herbicidal activity rating, CO” value is listed as 5 (percentage of weeds killed was not less than 80%). Also, the “herbicidal activity rating, CA” value in assay [7] is 4 (percentage of weeds killed was not less than 60% and less than 80%). Further, the “herbicidal activity rating, AT (Abutilon theophrasti)” value in assay [8] is 5 (percentage of weeds killed was not less than 80%). Besides, the “herbicidal activity rating, AR” value in [9] is recorded as 5 (percentage of weeds killed was not less than 80%). Moreover, the “herbicidal activity rating, VH” value in [10] is on record as 5 (percentage of weeds killed was not less than 80%). In addition, the “herbicidal activity rating, SA” value in assay [11] is listed as 5 (percentage of weeds killed was not less than 80%).

Values taken from patent publication US6339045B1, “N-(unsubstituted or substituted)-4-substituted-6-(unsubstituted or substituted)phenoxy-2-pyridinecarboxamides or thiocarboxamides, processes for producing the same, and herbicides” (Kureha Kagaku Kogyo Kabushiki Kaisha, priority 1995, dated 2002).
